# Experimental data published in patent US20070191363A1, “Heteroalkyl-substituted biphenyl-4-carboxylic acid arylamide analogues” (Neurogen Corporation, priority 2004, published 2007).
# Molecular target: T1, human capsaicin receptor (Homo sapiens, UniProt Q8NER1)
# T1 construct: expressed in transfected cells
# Assay: Calcium mobilization assay, capsaicin agonist response
# Format: cell-based
# Details: capsaicin positive control, calcium mobilization in cells expressing human capsaicin receptor; read-out: approximate EC90 concentration
# Description: Cells transfected with expression plasmids (as described in Example 3) and thereby expressing human capsaicin receptor are seeded and grown to 70-90% confluency in FALCON black-walled, clear-bottomed 96-well plates (#3904, BECTON-DICKINSON, Franklin Lakes, N.J.). The culture medium is emptied from the 96 well plates and FLUO-3 AM calcium sensitive dye (Molecular Probes, Eugene, Oreg.) is added to each well (dye solution: 1 mg FLUO-3 AM, 440 μL DMSO and 440 μl 20% pluronic acid in DMSO, diluted 1:250 in Krebs-Ringer HEPES (KRH) buffer (25 mM HEPES, 5 mM KCl, 0.96 mM NaH2PO4, 1 mM MgSO4, 2 mM CaCl2, 5 mM glucose, 1 mM probenecid, pH 7.4), 50 μl diluted solution per well). […]
# To measure the ability of a test compound to agonize or antagonize a calcium mobilization response in cells expressing capsaicin receptors to capsaicin or other vanilloid agonist, the EC50 of the agonist capsaicin is first determined. […] Capsaicin-induced calcium mobilization is monitored using either FLUOROSKAN ASCENT (Labsystems; Franklin, Mass.) or FLIPR (fluorometric imaging plate reader system; Molecular Devices, Sunnyvale, Calif.) instruments. […] In this equation, y is the maximum fluorescence signal, x is the concentration of the agonist or antagonist (in this case, capsaicin), a is the Emax, b corresponds to the EC50 value and c is the Hill coefficient. […]
# T1 sequence (Q8NER1 whole entry): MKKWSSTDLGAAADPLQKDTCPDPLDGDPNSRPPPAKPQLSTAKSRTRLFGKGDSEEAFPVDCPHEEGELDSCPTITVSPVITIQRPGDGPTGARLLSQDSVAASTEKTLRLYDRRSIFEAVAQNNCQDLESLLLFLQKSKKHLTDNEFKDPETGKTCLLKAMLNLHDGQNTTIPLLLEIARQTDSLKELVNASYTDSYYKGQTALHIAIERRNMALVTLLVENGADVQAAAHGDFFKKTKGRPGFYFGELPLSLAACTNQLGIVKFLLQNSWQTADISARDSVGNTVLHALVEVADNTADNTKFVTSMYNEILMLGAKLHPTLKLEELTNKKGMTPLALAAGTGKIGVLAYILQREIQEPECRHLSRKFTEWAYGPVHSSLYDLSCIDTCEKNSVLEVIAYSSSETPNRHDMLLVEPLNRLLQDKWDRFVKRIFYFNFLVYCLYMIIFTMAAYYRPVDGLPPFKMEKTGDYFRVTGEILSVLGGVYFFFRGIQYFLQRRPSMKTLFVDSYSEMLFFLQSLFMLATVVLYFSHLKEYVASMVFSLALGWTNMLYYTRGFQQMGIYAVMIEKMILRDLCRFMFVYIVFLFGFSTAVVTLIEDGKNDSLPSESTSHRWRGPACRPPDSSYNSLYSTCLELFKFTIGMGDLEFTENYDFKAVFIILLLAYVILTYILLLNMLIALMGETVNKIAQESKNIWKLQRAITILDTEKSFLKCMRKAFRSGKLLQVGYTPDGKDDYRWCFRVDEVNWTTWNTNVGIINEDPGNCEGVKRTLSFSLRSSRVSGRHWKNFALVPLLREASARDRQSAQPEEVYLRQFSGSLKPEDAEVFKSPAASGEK
row,EC90 [nM],SMILES
1,~100,COc1cc(CNC(=O)CCCC/C=C/C(C)C)ccc1O [capsaicin]

# Molecular target: T1, human capsaicin receptor
# Assay: Calcium mobilization assay, determination of antagonist activity
# Format: cell-based
# Details: 50% decrease in the fluorescence response of cells exposed to capsaicin; cells expressing human capsaicin receptor
# Description: A cDNA encoding full length human capsaicin receptor (SEQ ID NO:1, 2 or 3 of U.S. Pat. No. 6,482,611) is subcloned in the plasmid pBK-CMV (Stratagene, La Jolla, Calif.) for recombinant expression in mammalian cells.
# Human embryonic kidney (HEK293) cells are transfected with the pBK-CMV expression construct encoding the full length human capsaicin receptor using standard methods. The transfected cells are selected for two weeks in media containing G418 (400 μg/ml) to obtain a pool of stably transfected cells. Independent clones are isolated from this pool by limiting dilution to obtain clonal stable cell lines for use in subsequent experiments.
# This Example illustrates a representative calcium mobilization assay for use in monitoring the response of cells expressing capsaicin receptor to capsaicin and other vanilloid ligands of the capsaicin receptor, as well as for evaluating test compounds for agonist and antagonist activity.
# Cells transfected with expression plasmids (as described in Example 3) and thereby expressing human capsaicin receptor are seeded and grown to 70-90% confluency in FALCON black-walled, clear-bottomed 96-well plates (#3904, BECTON-DICKINSON, Franklin Lakes, N.J.). The culture medium is emptied from the 96 well plates and FLUO-3 AM calcium sensitive dye (Molecular Probes, Eugene, Oreg.) is added to each well (dye solution: 1 mg FLUO-3 AM, 440 μL DMSO and 440 μl 20% pluronic acid in DMSO, diluted 1:250 in Krebs-Ringer HEPES (KRH) buffer (25 mM HEPES, 5 mM KCl, 0.96 mM NaH2PO4, 1 mM MgSO4, 2 mM CaCl2, 5 mM glucose, 1 mM probenecid, pH 7.4), 50 μl diluted solution per well). Plates are covered with aluminum foil and incubated at 37° C. for 1-2 hours in an environment containing 5% CO2. After the incubation, the dye is emptied from the plates, and the cells are washed once with KRH buffer, and resuspended in KRH buffer.
# To measure the ability of a test compound to agonize or antagonize a calcium mobilization response in cells expressing capsaicin receptors to capsaicin or other vanilloid agonist, the EC50 of the agonist capsaicin is first determined. An additional 20 μl of KRH buffer and 1 μl DMSO is added to each well of cells, prepared as described above. 100 μl capsaicin in KRH buffer is automatically transferred by the FLIPR instrument to each well. Capsaicin-induced calcium mobilization is monitored using either FLUOROSKAN ASCENT (Labsystems; Franklin, Mass.) or FLIPR (fluorometric imaging plate reader system; Molecular Devices, Sunnyvale, Calif.) instruments. Data obtained between 30 and 60 seconds after agonist application are used to generate an 8-point concentration response curve, with final capsaicin concentrations of 1 nM to 3 μM. […] software (Synergy Software, Reading, Pa.) is used to fit the data to the equation: y=a*(1/(1+(b/x)c)) to determine the 50% excitatory concentration (EC50) for the response. In this equation, y is the maximum fluorescence signal, x is the concentration of the agonist or antagonist (in this case, capsaicin), a is the Emax, b corresponds to the EC50 value and c is the Hill coefficient. Determination of Agonist Activity
# Test compounds are dissolved in DMSO, diluted in 20 μl KRH buffer so that the final concentration of test compounds in the assay well is between 1 μM and 5 μM, and added to cells prepared as described above. The 96 well plates containing prepared cells and test compounds are incubated in the dark, at room temperature for 0.5 to 6 hours. It is important that the incubation not continue beyond 6 hours. Just prior to determining the fluorescence response, 100 μl capsaicin in KRH buffer at twice the EC50 concentration determined as described above is automatically added by the FLIPR instrument to each well of the 96 well plate for a final sample volume of 200 μl and a final capsaicin concentration equal to the EC50. The final concentration of test compounds in the assay wells is between 1 μM and 5 μM.
row,SMILES,IC50 [nM]
1,"CC(C)(C)c1ccc(NC(=O)c2ccc(-c3ncccc3C(F)(F)F)cc2O)cc1OCCO [Compound 7, N-[4-tert-Butyl-3-(2-hydroxy-ethoxy)-phenyl]-2-hydroxy-4-(3-trifluoromethyl-pyridin-2-yl)-benzamide]",≤ 1000
2,"COCCN(CCOC)CCOc1cc(NC(=O)c2ccc(-c3ncccc3C(F)(F)F)cc2)ccc1C(C)(C)C [Compound 5, N-(3-{2-[Bis-(2-methoxy-ethyl)-amino]-ethoxy}-4-tert-butyl-phenyl)-4-(3-trifluoromethyl-pyridin-2-yl)-benzamide]",≤ 1000
3,"C[C@@H]1CN(CCOc2cc(NC(=O)c3ccc(-c4ncccc4C(F)(F)F)cc3O)ccc2C(C)(C)C)C[C@H](C)O1 [Compound 8, N-{4-tert-Butyl-3-[2-(2,6-dimethyl-morpholin-4-yl)-ethoxy]-phenyl}-2-hydroxy-4-(3-trifluoromethyl-pyridin-2-yl)-benzamide (cis)]",≤ 1000

# Other lines, results leading:
row,IC50 [nM],SMILES
1,≤ 1000,"CC(C)(C)c1ccc(NC(=O)c2ccc(-c3ncccc3C(F)(F)F)cc2)cc1OCCN1CCCCC1 [Compound 4, N-[4-tert-Butyl-3-(2-piperidin-1-yl-ethoxy)-phenyl]-4-(3-trifluoromethyl-pyridin-2-yl)-benzamide]"
2,≤ 1000,"CC1(C)CCCN(CCOc2cc(NC(=O)c3ccc(-c4ncccc4C(F)(F)F)cc3)ccc2C(C)(C)C)C1 [Compound 6, N-{4-tert-Butyl-3-[2-(3,3-dimethyl-piperidin-1-yl)-ethoxy]-phenyl}-4-(3-trifluoromethyl-pyridin-2-yl)-benzamide]"
3,≤ 1000,"CC(C)(C)c1ccc(NC(=O)c2ccc(-c3ncccc3C(F)(F)F)cc2O)cc1OCCN1CCCCC1 [Compound 9, N-[4-tert-Butyl-3-(2-piperidin-1-yl-ethoxy)-phenyl]-2-hydroxy-4-(3-trifluoromethyl-pyridin-2-yl)-benzamide]"
4,≤ 1000,"CC(C)(C)c1ccc(NC(=O)c2ccc(-c3ncccc3C(F)(F)F)cc2)cc1OCCO [Compound 1, N-[4-tert-Butyl-3-(2-hydroxy-ethoxy)-phenyl]-4-(3-trifluoromethyl-pyridin-2-yl)-benzamide]"
5,≤ 1000,"CC(C)(C)c1ccc(NC(=O)c2ccc(-c3ncccc3C(F)(F)F)cc2)cc1OCCN1CCOCC1 [Compound 2, N-[4-tert-Butyl-3-(2-morpholin-4-yl-ethoxy)-phenyl]-4-(3-trifluoromethyl-pyridin-2-yl)-benzamide]"
6,≤ 1000,"C[C@@H]1CN(CCOc2cc(NC(=O)c3ccc(-c4ncccc4C(F)(F)F)cc3)ccc2C(C)(C)C)C[C@H](C)O1 [Compound 3, N-{4-tert-Butyl-3-[2-(2,6-dimethyl-morpholin-4-yl)-ethoxy]-phenyl}-4-(3-trifluoromethyl-pyridin-2-yl)-benzamide (cis)]"

# Molecular target: VR
# Assay: not given
# Details: binds to VR with no more than moderate affinity; typical value; cited from earlier work
row,SMILES,Ki [nM]
1,Cl.Cl.Cl.Cl.Cl.Cl.N.N.N.N.N.N.N.N.N.N.N.N.N.N.[O-2].[O-2].[Ru+3].[Ru+3].[Ru+4] [ruthenium red],≥ 140000
